# Test results as given in PubChem BioAssay AID1963840 (Molecular Pharmacology Branch, DTP, NCI, 2024).
# Tested on: 695427-040-R-J1-PDC complex spheroid viability
# Experiment: Anticancer human tumor 695427-040-R-J1-PDC patient-derived colon adenocarcinoma cell line growth inhibition [POLQ]
# Details: for IC50: curve of first compound; for viability, T/C: stronger effect = lower value
# In short: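 PDC + HUVEC + MSC complex spheroids; POLQ inhibitors ± partner drugs; top conc. at/near clinical Cmax, else 10 microM (SN-38 1 microM), half-log dilutions; 37 degrees C, 5% CO2.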
# [1] = second compound 0.0316 µM, first compound 0.0316 µM
# [2] = second compound 0.0316 µM, first compound 0.1 µM
# [3] = second compound 0.0316 µM, first compound 0.316 µM
# [4] = second compound 0.0316 µM, first compound 1 µM
# [5] = second compound 0.0316 µM, first compound 3.16 µM
# [6] = second compound 0.0316 µM, first compound 10 µM
# [7] = second compound 0.1 µM, first compound 0.0316 µM
# [8] = second compound 0.1 µM, first compound 0.1 µM
# [9] = second compound 0.1 µM, first compound 0.316 µM
# [10] = second compound 0.1 µM, first compound 1 µM
# [11] = second compound 0.1 µM, first compound 3.16 µM
# [12] = second compound 0.1 µM, first compound 10 µM
# [13] = second compound 0.316 µM, first compound 0.0316 µM
# [14] = second compound 0.316 µM, first compound 0.1 µM
# [15] = second compound 0.316 µM, first compound 0.316 µM
# [16] = second compound 0.316 µM, first compound 1 µM
# [17] = second compound 0.316 µM, first compound 3.16 µM
# [18] = second compound 0.316 µM, first compound 10 µM
# [19] = second compound 1 µM, first compound 0.0316 µM
# [20] = second compound 1 µM, first compound 0.1 µM
# [21] = second compound 1 µM, first compound 0.316 µM
# [22] = second compound 1 µM, first compound 1 µM
# [23] = second compound 1 µM, first compound 3.16 µM
# [24] = second compound 1 µM, first compound 10 µM
# [25] = second compound 3.16 µM, first compound 0.0316 µM
# [26] = second compound 3.16 µM, first compound 0.1 µM
# [27] = second compound 3.16 µM, first compound 0.316 µM
# [28] = second compound 3.16 µM, first compound 1 µM
# [29] = second compound 3.16 µM, first compound 3.16 µM
# [30] = second compound 3.16 µM, first compound 10 µM
# [31] = second compound 10 µM, first compound 0.0316 µM
# [32] = second compound 10 µM, first compound 0.1 µM
# [33] = second compound 10 µM, first compound 0.316 µM
# [34] = second compound 10 µM, first compound 1 µM
# [35] = second compound 10 µM, first compound 3.16 µM
# [36] = second compound 10 µM, first compound 10 µM
# 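Further: spheroids exposed to compounds for seven days.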
# 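Wherever viability, T/C is given: 100% = DMSO vehicle control viability.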
smiles,measurement,setting,value
CC1COCCN1c1cc(C2(S(C)(=N)=O)CC2)nc(-c2ccnc3[nH]ccc23)n1 (centres undefined) + Cc1cccc(N(C)C(=O)C2C(O)CCN2c2nc(C)cc(C(F)(F)F)c2C#N)c1,IC50,second compound 0.0316 µM,> 10 µM
same,IC50,second compound 0.1 µM,> 10 µM
same,IC50,second compound 0.316 µM,> 10 µM
same,IC50,second compound 1 µM,> 10 µM
same,IC50,second compound 3.16 µM,> 10 µM
same,IC50,second compound 10 µM,> 10 µM
same,"viability, T/C",[1],104%
same,"viability, T/C",[2],99.1%
same,"viability, T/C",[3],101%
same,"viability, T/C",[4],95.1%
same,"viability, T/C",[5],101%
same,"viability, T/C",[6],82.5%
same,"viability, T/C",[7],107%
same,"viability, T/C",[8],101%
same,"viability, T/C",[9],98.5%
same,"viability, T/C",[10],93.8%
same,"viability, T/C",[11],95.5%
same,"viability, T/C",[12],81.2%
same,"viability, T/C",[13],105%
same,"viability, T/C",[14],95.7%
same,"viability, T/C",[15],100%
same,"viability, T/C",[16],93.4%
same,"viability, T/C",[17],91.7%
same,"viability, T/C",[18],88.8%
same,"viability, T/C",[19],91.1%
same,"viability, T/C",[20],91.6%
same,"viability, T/C",[21],101%
same,"viability, T/C",[22],103%
same,"viability, T/C",[23],107%
same,"viability, T/C",[24],80.9%
same,"viability, T/C",[25],103%
same,"viability, T/C",[26],89.8%
same,"viability, T/C",[27],89.7%
same,"viability, T/C",[28],89.9%
same,"viability, T/C",[29],97%
same,"viability, T/C",[30],73.9%
same,"viability, T/C",[31],93.1%
same,"viability, T/C",[32],96.8%
same,"viability, T/C",[33],91.9%
same,"viability, T/C",[34],87.8%
same,"viability, T/C",[35],92.8%
same,"viability, T/C",[36],67.1%
CNCc1ccc(-c2[nH]c3cc(F)cc4c3c2CCNC4=O)cc1 + Cc1cccc(N(C)C(=O)C2C(O)CCN2c2nc(C)cc(C(F)(F)F)c2C#N)c1,IC50,second compound 0.0316 µM,> 10 µM
same,IC50,second compound 0.1 µM,> 10 µM
same,IC50,second compound 0.316 µM,> 10 µM
same,IC50,second compound 1 µM,> 10 µM
same,IC50,second compound 3.16 µM,> 10 µM
same,IC50,second compound 10 µM,> 10 µM
same,"viability, T/C",[1],102%
same,"viability, T/C",[2],104%
same,"viability, T/C",[3],105%
same,"viability, T/C",[4],96.8%
same,"viability, T/C",[5],108%
same,"viability, T/C",[6],109%
same,"viability, T/C",[7],111%
same,"viability, T/C",[8],100%
same,"viability, T/C",[9],95.9%
same,"viability, T/C",[10],95.3%
same,"viability, T/C",[11],105%
same,"viability, T/C",[12],108%
same,"viability, T/C",[13],104%
same,"viability, T/C",[14],99.3%
same,"viability, T/C",[15],104%
same,"viability, T/C",[16],103%
same,"viability, T/C",[17],102%
same,"viability, T/C",[18],99.6%
same,"viability, T/C",[19],92.7%
same,"viability, T/C",[20],93.9%
same,"viability, T/C",[21],93.6%
same,"viability, T/C",[22],98%
same,"viability, T/C",[23],110%
same,"viability, T/C",[24],102%
same,"viability, T/C",[25],99%
same,"viability, T/C",[26],98.1%
same,"viability, T/C",[27],98.4%
same,"viability, T/C",[28],103%
same,"viability, T/C",[29],108%
same,"viability, T/C",[30],104%
same,"viability, T/C",[31],92.3%
same,"viability, T/C",[32],92.1%
same,"viability, T/C",[33],88.9%
same,"viability, T/C",[34],93.2%
same,"viability, T/C",[35],104%
same,"viability, T/C",[36],104%
